These results are taken from paper PMC3726784, “Synthesis, Structure and Antibacterial Activity of Potent DNA Gyrase Inhibitors: N′-Benzoyl-3-(4-Bromophenyl)-1H-Pyrazole-5-Carbohydrazide Derivatives” (PLoS ONE, 2013).

In one data set the target is T1, S. aureus DNA gyrase (Staphylococcus aureus, UniProt P0A0K8).
T1 construct: purified by the F. Blanche [25] from a crude extract of S. aureus; endogenous in cells
As to the kind of experiment: biochemical. The conditions noted are these: enzyme purified from S. aureus, supercoiling. The text has this: (§1) To elucidate the mechanism by which the pyrazole derivatives induce antibacterial activity, the inhibitory activities of selected compounds were examined against DNA gyrase isolated from B. subtilis and S. aureus.
The S. aureus DNA gyrase were purified by the F. Blanche from a crude extract of S. aureus and cultivated with medium B, which was composed of 10 g of polypeptone, 2 g of yeast extract, 8 g of Na2HPO4, 2 g of KH2PO4, 1.2 g of (NH4)2SO4, 0.2 g of MgSO4, 4 g of glucose perliter of distilled water. Supercoiling and decatenation were performed according to F. B lanche.

Another data set concerns the target B. subtilis DNA gyrase (Bacillus subtilis, UniProt P05652). Briefly: biochemical. How it is done:
as §1
The B. subtilis DNA gyrase were purified by the methods of E. Orr.: Cells were suspended in an equal volume of 25 mM HEPES-KOH (pH 8.0)-100 mM KCl and stored frozen at −70°C. The frozen cell suspension was thawed and diluted with an equal volume of 25 mM HEPES-KOH (pH 8.0)-0.4 M sucrose-20 mM magnesium acetate-1 mM dithiothreitol-5 mM PMSF. All operations were performed at 0–4°C. Lysozyme was added to a final concentration, and the mixture was incubated for 2.5 h. One-third volume of 2 M KCl-1.5% Brij was added, and the incubation was continued for 15 min. The lysate was then centrifuged for 90 min intirotor. The supernatant was adjusted to a KCl concentration of 0.2 M by dilution with 25 mM HEPES-KOH (pH 8.0)-1 mM dithiothreitol-1mMEDTA-0.5 mM pmsf-10% ethylene glycol and applied to a column. The column was washed with starting buffer and eluted successively with buffer containing 20 mM ATP-25 mM magnesium acetate-0.2 M KCI, buffer (2 M KCI), and 5 M urea in buffer (0.2 M KCl).Protein-containing fractions were dialyzed against buffer (0.05 MKCI). Supercoiling and decatenation were carried out by the F. Blanche method.

Data set [1] has as its system Pseudomonas aeruginosa ATCC 27853. As to the kind of experiment: In vitro antibacterial assay (MIC, MTT colorimetric method). The data set is classed as cell-based. Conditions: Pseudomonas aeruginosa, ATCC27853; P. aeruginosa ATCC 27853, MH medium, 37°C, 24 h; read-out: Minimum inhibitory concentrations, P.aeruginosa. As for the experimental part: (§2) The activities of synthesized compounds were tested against Bacillus subtilis ATCC 6633, Escherichia coli ATCC 35218, Pseudomonas aeruginosa ATCC 27853 and Staphylococcus aureus ATCC 6538 which may be causal agents of some serious infections in humans using MH medium (Mueller-Hinton medium: casein hydrolysate 17.5 g, soluble starch 1.5 g, beef extract 1000 mL). Also included are the activities of reference compounds kanamycin.
(§3) The antibacterial activity of the synthesized compounds was tested against B. subtilis, E. coli, P. aeruginosa and S. aureus using MH medium (Mueller-Hinton medium: casein hydrolysate 17.5 g, soluble starch 1.5 g, beef extract 1000 mL). The MICs (minimum inhibitory concentrations) of the test compounds were determined by a colorimetric method using the dye MTT (3-(4,5-dimethylth-iazol-2-yl)-2,5-diphenyl tetrazoliumbromide). A stock solution of the synthesized compound (100 µg/mL) in DMSO was prepared and graded quantities of the test compounds were incorporated in specified quantity of sterilized liquid MH medium. A specified quantity of the medium containing the compound was poured into microtitration plates. Suspension of the microorganism was prepared to contain approximately 10^5 cfu/mL and applied to microtitration plates with serially diluted compounds in DMSO to be tested and incubated at 37°C for 24 h. After the MICs were visually determined on each of the microtitration plates, 50 µL of PBS (phosphate buffered saline 0.01 mol/L, pH 7.4, Na2HPO4·12H2O 2.9 g, KH2PO4 0.2 g, NaCl 8.0 g, KCl 0.2 g, distilled water 1000 mL) containing 2 mg of MTT/mL was added to each well. Incubation was continued at room temperature for 4–5 h. The content of each well was removed, and 100 µL of isopropanol containing 5% 1 mol/L HCl was added to extract the dye. After 12 h of incubation at room temperature, the optical density (OD) was measured with a microplate reader at 550 nm.

Data set [2] relates to Staphylococcus aureus ATCC 6538. Described as above. The format is cell-based. The conditions noted are these: Staphylococcus aureus, ATCC6538; S. aureus ATCC 6538, MH medium, 37°C, 24 h; read-out: Minimum inhibitory concentrations, S. aureus. How it is done: as §2, §3
Data set [3] deals with Bacillus subtilis ATCC 6633. The description is as above. The data set is classed as cell-based. The conditions noted are these: Bacillus subtilis, ATCC6633, 24 h, B. subtilis ATCC 6633, MH medium, 37°C, read-out: Minimum inhibitory concentrations, B. subtilis. As for the experimental part:
as §2, §3

Data set [4] relates to Escherichia coli ATCC 35218. Described as above. The data set is classed as cell-based. Conditions: Escherichia coli, ATCC35218; E. coli ATCC 35218, MH medium, 37°C, 24 h; read-out: Minimum inhibitory concentrations, E. coli. How it is done:
as §2, §3

Molecules are shown by their SMILES. pIC50: −log10 of the molar value. Values after ≈ are worked out from the molar mass of the structure shown.

Sequence of B. subtilis DNA gyrase (P05652 whole entry): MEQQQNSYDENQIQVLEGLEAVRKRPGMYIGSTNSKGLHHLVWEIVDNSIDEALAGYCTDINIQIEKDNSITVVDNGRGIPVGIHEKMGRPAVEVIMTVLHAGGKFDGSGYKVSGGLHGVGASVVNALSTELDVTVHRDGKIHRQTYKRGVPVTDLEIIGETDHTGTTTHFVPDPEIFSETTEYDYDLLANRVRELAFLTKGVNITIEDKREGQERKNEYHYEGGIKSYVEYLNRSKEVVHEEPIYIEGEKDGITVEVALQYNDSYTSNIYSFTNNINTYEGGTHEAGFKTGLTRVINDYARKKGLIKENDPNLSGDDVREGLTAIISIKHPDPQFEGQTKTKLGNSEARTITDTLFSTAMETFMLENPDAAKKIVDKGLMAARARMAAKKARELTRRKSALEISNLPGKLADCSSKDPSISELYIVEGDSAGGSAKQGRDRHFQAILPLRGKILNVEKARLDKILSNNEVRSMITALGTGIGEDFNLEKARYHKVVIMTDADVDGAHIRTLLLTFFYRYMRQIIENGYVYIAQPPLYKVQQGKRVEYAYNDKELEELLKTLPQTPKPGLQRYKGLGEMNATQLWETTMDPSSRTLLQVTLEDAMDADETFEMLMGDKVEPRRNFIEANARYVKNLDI
Sequence of B. subtilis DNA gyrase (P05653 whole entry, further chain): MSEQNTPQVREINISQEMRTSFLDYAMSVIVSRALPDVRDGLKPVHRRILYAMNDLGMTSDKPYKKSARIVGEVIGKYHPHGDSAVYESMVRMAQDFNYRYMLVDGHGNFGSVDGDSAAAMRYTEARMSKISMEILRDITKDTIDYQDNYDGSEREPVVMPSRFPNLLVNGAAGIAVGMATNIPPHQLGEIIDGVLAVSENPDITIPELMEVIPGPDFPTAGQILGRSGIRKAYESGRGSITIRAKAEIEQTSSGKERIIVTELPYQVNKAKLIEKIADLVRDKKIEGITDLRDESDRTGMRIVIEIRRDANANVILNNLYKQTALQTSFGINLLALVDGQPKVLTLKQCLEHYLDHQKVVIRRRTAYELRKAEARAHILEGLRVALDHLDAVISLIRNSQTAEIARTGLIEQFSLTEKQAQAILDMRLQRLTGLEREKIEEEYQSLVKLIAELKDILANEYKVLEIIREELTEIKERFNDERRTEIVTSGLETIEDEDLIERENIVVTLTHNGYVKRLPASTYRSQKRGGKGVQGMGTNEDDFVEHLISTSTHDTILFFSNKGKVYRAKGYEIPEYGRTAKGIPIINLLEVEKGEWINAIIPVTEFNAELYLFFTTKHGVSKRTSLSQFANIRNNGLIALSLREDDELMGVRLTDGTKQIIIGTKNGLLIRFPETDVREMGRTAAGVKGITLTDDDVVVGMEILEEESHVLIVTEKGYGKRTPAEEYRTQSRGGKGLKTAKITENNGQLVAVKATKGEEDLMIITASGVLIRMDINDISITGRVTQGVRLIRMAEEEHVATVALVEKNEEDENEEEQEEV
T1 sequence (P0A0K8 whole entry): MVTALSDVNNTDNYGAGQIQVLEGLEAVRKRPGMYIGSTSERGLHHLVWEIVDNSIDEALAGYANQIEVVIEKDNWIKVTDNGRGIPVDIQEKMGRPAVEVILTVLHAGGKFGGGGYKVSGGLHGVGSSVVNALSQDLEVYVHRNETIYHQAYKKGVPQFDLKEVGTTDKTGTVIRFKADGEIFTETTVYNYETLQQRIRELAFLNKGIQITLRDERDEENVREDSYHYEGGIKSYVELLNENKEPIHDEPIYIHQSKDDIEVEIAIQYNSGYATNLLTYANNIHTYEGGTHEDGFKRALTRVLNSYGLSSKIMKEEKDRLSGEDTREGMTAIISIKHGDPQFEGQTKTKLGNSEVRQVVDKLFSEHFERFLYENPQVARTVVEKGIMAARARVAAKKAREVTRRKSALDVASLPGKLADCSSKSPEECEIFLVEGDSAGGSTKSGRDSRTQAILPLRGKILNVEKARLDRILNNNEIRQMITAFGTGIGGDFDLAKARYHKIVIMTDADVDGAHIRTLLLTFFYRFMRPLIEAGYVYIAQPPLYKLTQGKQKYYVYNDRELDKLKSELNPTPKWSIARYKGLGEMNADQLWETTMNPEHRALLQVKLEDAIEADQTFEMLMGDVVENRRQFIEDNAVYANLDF
T1 sequence (P20831 whole entry partner): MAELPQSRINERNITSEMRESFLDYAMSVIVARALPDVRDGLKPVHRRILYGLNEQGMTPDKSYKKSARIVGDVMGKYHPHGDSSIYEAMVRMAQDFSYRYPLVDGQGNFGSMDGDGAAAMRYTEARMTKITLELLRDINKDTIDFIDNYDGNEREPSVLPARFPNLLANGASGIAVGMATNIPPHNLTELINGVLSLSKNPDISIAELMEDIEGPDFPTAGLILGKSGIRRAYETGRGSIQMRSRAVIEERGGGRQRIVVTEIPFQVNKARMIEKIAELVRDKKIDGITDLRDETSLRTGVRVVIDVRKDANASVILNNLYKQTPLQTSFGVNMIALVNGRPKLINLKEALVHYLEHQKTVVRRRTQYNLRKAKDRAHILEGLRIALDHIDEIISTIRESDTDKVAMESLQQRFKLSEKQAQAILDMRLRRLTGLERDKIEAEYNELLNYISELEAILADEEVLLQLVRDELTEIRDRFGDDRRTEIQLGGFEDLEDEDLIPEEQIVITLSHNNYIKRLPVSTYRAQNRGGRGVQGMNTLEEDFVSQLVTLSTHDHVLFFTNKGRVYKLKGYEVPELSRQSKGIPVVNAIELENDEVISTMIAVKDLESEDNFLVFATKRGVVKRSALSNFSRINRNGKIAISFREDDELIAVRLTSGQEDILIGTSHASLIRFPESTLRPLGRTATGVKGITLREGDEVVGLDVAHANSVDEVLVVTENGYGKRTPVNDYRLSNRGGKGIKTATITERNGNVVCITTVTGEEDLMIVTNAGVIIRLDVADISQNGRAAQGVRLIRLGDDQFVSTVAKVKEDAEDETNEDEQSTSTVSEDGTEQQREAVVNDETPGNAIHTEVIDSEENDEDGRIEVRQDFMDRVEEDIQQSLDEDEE

Regarding `COc1ccc(C(=O)NNC(=O)c2cc(-c3ccc(Br)cc3)n[nH]2)cc1` [3e, 3-(4-Bromophenyl)-N'-(4-methoxybenzoyl)-1H-pyrazole-5-carbohydrazide], the melting point (as a rule, the temperature of the solid-liquid transition) lay within 281 to 282 °C. Moreover, the negative logarithm of the IC50 (pIC50) (in general, the negative decadic logarithm of the IC50, by convention in mol/L) at S. aureus DNA gyrase is 5.09. Also, the pIC50 on B. subtilis DNA gyrase was 4.53. Moreover, the MIC in data set [1] was 12.5 µg/mL (≈ 30.1 µM). The MIC in data set [2] came to 6.68 µg/mL (≈ 16.1 µM). In addition, the MIC in data set [3] turned out to be 10.1 µg/mL (≈ 24.4 µM). Further, the MIC in data set [4] is 50 µg/mL (≈ 120 µM).

Compound `Cc1ccccc1C(=O)NNC(=O)c1cc(-c2ccc(Br)cc2)n[nH]1` [3p, 3-(4-Bromophenyl)-N'-(2-methylbenzoyl)-1H-pyrazole-5-carbohydrazide] yielded a melting point of 292 to 294 °C. On S. aureus DNA gyrase, the pIC50 is 4.88. For the same compound, on B. subtilis DNA gyrase, the pIC50 is 5.90. Besides, in data set [1], the MIC is 12.5 µg/mL (≈ 31.3 µM). Besides, the MIC in data set [2] was 8.08 µg/mL (≈ 20.2 µM). Moreover, the MIC in data set [3] was found to be 12.2 µg/mL (≈ 30.4 µM). Moreover, the MIC in data set [4] came to 50 µg/mL (≈ 125 µM).

For `O=C(NNC(=O)c1cc(-c2ccc(Br)cc2)n[nH]1)c1ccccc1` [3s, N'-Benzoyl-3-(4-bromophenyl)-1H-pyrazole-5-carbohydrazide], the melting point lay in the range of 288 to 290 °C. Moreover, the pIC50 against S. aureus DNA gyrase is 5.07. This compound also had a pIC50 against B. subtilis DNA gyrase of 5.59. In addition, the MIC in data set [1] came out at 12.5 µg/mL (≈ 32.4 µM). Besides, in data set [2], the MIC was 10.6 µg/mL (≈ 27.4 µM). Besides, the MIC in data set [3] came to 10.6 µg/mL (≈ 27.4 µM). Also, the MIC in data set [4] was 12.5 µg/mL (≈ 32.4 µM).
